Results as given in patent EP4570805A1, “TRICYCLIC COMPOUNDS AND MEDICAL USE THEREOF” (Chia Tai Tianqing Pharmaceutical Group Co., Ltd., priority 2022, dated 2024).
Where two headings read alike, the source gives them in different places.

Legend:
His-KRAS G12D (1-169) = molecular target: T1, His-KRAS G12D (1-169) (Homo sapiens, UniProt P01116, G12D); assay: Nucleotide exchange assay (SOS1cat-mediated, HTRF); type: biochemical; settings: room temperature, read-out: Nucleotide exchange inhibitory activity IC50
T1 construct: His-KRAS G12D (1-169)
T1 sequence (P01116 1-169 isoform P01116-2 G12D): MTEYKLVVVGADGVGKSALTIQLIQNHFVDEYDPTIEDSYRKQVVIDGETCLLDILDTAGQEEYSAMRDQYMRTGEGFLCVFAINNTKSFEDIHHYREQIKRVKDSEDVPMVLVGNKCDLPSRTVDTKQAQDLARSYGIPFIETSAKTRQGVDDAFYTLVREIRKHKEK
Experimental: • 1. Reagents: His-KRAS G12D (1-169); SOS1^cat (564-1049); GDP (purchased from Sigma); Anti-6HIS-Cryptate (purchased from Cisbio); EDA-GTP-DY-647P1 (purchased from Jena Bioscience) • 2. Buffer preparation: • 1) assay buffer: HEPES pH 7.4, NaCl, MgCl2, DTT, BSA, and Igepal; • 2) KRAS G12D working solution: A KRAS G12D working solution containing 100 nM His-KRAS G12D and 2 nM Anti-6HIS-Cryptate was prepared using the assay buffer; • 3) SOS1^cat working solution: An SOS1^cat working solution containing 20 nM SOS1^cat and 200 nM EDA-GTP-DY-647P1 was prepared using the assay buffer; • 4) blank control working solution: A blank control solution containing 2 nM Anti-6HIS-Cryptate was prepared using the assay buffer. • 3. Testing procedure: The entire experimental process was completed at room temperature. Using a black clear-bottom 384-well plate, 5 µL of KRAS G12D working solution was added to each well for the experimental and negative groups, while 5 µL of blank control working solution was added to each well for the blank group. The plate was incubated at room temperature for 10 min. Then, the compounds (at an initial concentration of 100 µM, 8 concentration gradients by 1:2 serial dilution) were added to the experimental groups using an ultra microsyringe and incubated at room temperature for 30 min. Finally, 5 µL of SOS1^cat working solution was added to each well, and after incubation at room temperature for 15 min, signal values were detected at 665 nm/620 nm using a PerkinElmer Envision HTS multi-label plate reader. The inhibition rate was calculated by the following formula: inhibition rate (%) = (mean value of negative control group - mean value of experimental group)/(mean value of negative control group - mean value of blank group) × 100%. The curves were fitted using the four-parameter logistic model with the logarithm of the compound concentration as the abscissa and the inhibition rate as the ordinate, and IC 50 values were calculated.

[1] = microsomes, 1 h
Experimental: (§1) Liver microsome incubation samples (species: human, monkey, rat, and mouse) were prepared by mixing a PBS buffer (pH 7.4), a liver microsome solution (0.5 mg/mL), a test compound, and an NADPH + MgCl2 solution and incubated at 37 °C and 300 rpm for 1 h. Zero-hour samples were prepared by mixing a PBS buffer (pH 7.4), a liver microsome solution (0.5 mg/mL), and a test compound. An acetonitrile solution containing an internal standard was added to the samples, and the supernatants were prepared by protein precipitation, diluted, and then assayed by LC/MS/MS.

Capan-1 cells = assay: Inhibitory activity for Capan-1 cell proliferation (CCK-8); type: cell-based; settings: Homo sapiens, CAPAN-1, 120 h, 5 days incubation
Experimental: Capan-1 cells in a well-growing state were collected into a centrifuge tube, adjusted to a cell density of 1.5 × 10^4 cells/mL, and inoculated onto a 96-well plate (100 µL/well). […] Meanwhile, a control was set. After 5 days of incubation in the cell incubator, the assay reagent CCK-8 (manufacturer: Dojindo Laboratories, Beijing; 10 µL/well) was added. After 4 h of incubation in the cell incubator, the absorbance was measured at 450 nm on a PerkinElmer Envision microplate reader. A four-parameter analysis was performed, a dose-response curve was fitted, and IC50 was calculated.

[2] = In vitro liver microsomal stability, mouse; settings: mouse liver microsome 0.5 mg/mL, 37 °C
Experimental: as §1

AsPc-1 cells = assay: Inhibitory activity for AsPc-1 cell proliferation (CCK-8); type: cell-based, human; settings: Homo sapiens, ASPC1, 72 h incubation
Experimental: AsPc-1 cells in a well-growing state were collected into a centrifuge tube, adjusted to a cell density of 3 × 10^4 cells/mL, and inoculated onto a 96-well plate (100 µL/well). The compounds were added using a nanoliter pipettor such that the final concentrations of the compounds were 5000 nM-0.31 nM (the addition was performed in duplicate). Meanwhile, a control was set. After 72 h of incubation in the cell incubator, the assay reagent CCK-8 (manufacturer: Dojindo Laboratories; 10 µL/well) was added. After 3 h of incubation in the cell incubator, the absorbance was measured at 450 nm on a PerkinElmer Envision microplate reader. A four-parameter analysis was performed, a dose-response curve was fitted, and IC50 was calculated.

[3] = In vivo pharmacokinetics in mice; settings: mouse, in vivo, po, ICR mice, IG, 10 mg/kg; for MRT last: read-out: MRT(0-t)
Experimental: ICR mice weighing 20 g to 24 g were randomized into groups with 9 mice in each group after 3 to 5 days of acclimatization, and intragastric administration of the experimental compounds was performed at a dose of 10 mg/kg.
The test animals (ICR mice) were fasted for 12 h before administration and fed 4 h after administration, and were given free access to water before, after, and during the experiment.
After intragastric administration, about 0.1 mL of blood was collected via the orbital sinus at 0.25 h (15 min), 0.5 h (30 min), 1 h, 2 h, 4 h, 6 h, 8 h, and 10 h (each mouse was subjected to blood collection at 3 to 4 time points, with 3 mice per time point). Following anticoagulation with EDTA-K2, the blood samples were transferred to a centrifuge within 30 min and then centrifuged at 4000 rpm for 10 min at 4 °C to separate the plasma. All the plasma samples were collected and immediately stored at -20 °C for testing.
20 µL of the plasma sample to be tested and the standard curve sample were pipetted, and 400 µL of acetonitrile solution containing an internal standard (20 ng/mL) was added. The mixture was shaken and mixed well for 10 min, and centrifuged at 13000 rpm for 10 min. 50 µL of the supernatant was taken and diluted with 100 µL of ultrapure water. After being mixed well, 0.5 µL of the resulting sample was subjected to LC/MS/MS, and a chromatogram was recorded.
Oral exposure of the compounds of the present disclosure was evaluated by in vivo pharmacokinetic experiments in mice.

Row | SMILES | IC50 (His-KRAS G12D (1-169)) [nM] | IC50 (Capan-1 cells) [nM] | other results
1 | C#Cc1c(F)ccc2cc(O)cc(-c3nc4c5c(nc(OCC67CCCN6CC(F)C7)nc5c3F)N(C3CCC(N)C3)CCO4)c12 (centres unmarked) [Example 10] | 500 to 999 |  | 
2 | C#Cc1c(F)ccc2cc(O)cc(-c3nc4c5c(nc(OC[C@@]67CCCN6C[C@H](F)C7)nc5c3F)N(C3CC(N(C)C)C3)CCO4)c12 (some centres unmarked) [Example 26] | 100 to 500 |  | 
3 | C#Cc1c(F)ccc2cc(O)cc(-c3nc4c5c(nc(OCC67CCCN6CC(F)C7)nc5c3F)N(CC(C)N)CCO4)c12 (centres unmarked) [Example 14] | ≤ 100 |  | 
4 | C#Cc1c(F)ccc2cc(O)cc(-c3nc4c5c(nc(OCC67CCCN6CC(F)C7)nc5c3F)N(C3CCC(O)C3)CCO4)c12 (centres unmarked) [Example 15] | ≤ 100 |  | 
5 | C#Cc1c(F)ccc2cc(O)cc(-c3nc4c5c(nc(OC[C@@]67CCCN6C[C@H](F)C7)nc5c3F)N(C3CCCC3)CCO4)c12 [Example 7] | ≤ 100 |  | 
6 | C#Cc1c(F)ccc2cc(O)cc(-c3nc4c5c(nc(OCCN6CCC6)nc5c3F)N(C(C)c3cccnc3N)[C@@H](C)CO4)c12 (single isomer, unassigned) [Example 134] |  | < 100 | The remaining amount % (T = 60 min) (0.5 mg/mL) Mouse liver microsome [1]: >60%
7 | C#Cc1c(F)ccc2cc(O)cc(-c3nc4c5c(nc(OCCCN6CCNCC6)nc5c3F)N(C(C)c3cccnc3N)[C@@H](C)CO4)c12 (single isomer, unassigned) [Example 140] |  | < 100 | The remaining amount % (T = 60 min) (0.5 mg/mL) Mouse liver microsome [1]: >60%
8 | C#Cc1c(F)ccc2cc(O)cc(-c3nc4c5c(nc(OC[C@@]67CCCN6C[C@H](F)C7)nc5c3F)N(CC3CC3)CCO4)c12 [Example 6] | ≤ 100 |  | 
9 | C#Cc1c(F)ccc2cc(O)cc(-c3nc4c5c(nc(O[C@H]6CCN(C)C6)nc5c3F)N(C(C)c3cccnc3N)[C@@H](C)CO4)c12 (single isomer, unassigned) [Example 103] |  | < 100 | The remaining amount % (T = 60 min) (0.5 mg/mL) Mouse liver microsome [2]: >60%
10 | C#Cc1c(F)ccc2cc(O)cc(-c3nc4c5c(nc(OCC67CCCN6CC(F)C7)nc5c3F)N(CC3(N(C)C)CC3)CCO4)c12 (centres unmarked) [Example 22] | ≤ 100 |  | 
11 | C#Cc1c(F)ccc2cc(O)cc(-c3nc4c5c(nc(OC[C@@]67CCCN6C[C@H](F)C7)nc5c3F)N(CC(F)(F)F)CCO4)c12 [Example 8] | ≤ 100 | 100 to 500 | IC50 (AsPc-1 cells): 500 to 999 nM
12 | C#Cc1c(F)ccc2cc(O)cc(-c3nc4c5c(nc(OCC67CCCN6CC(F)C7)nc5c3F)N(CCN(C)C)CCO4)c12 (centres unmarked) [Example 2] | ≤ 100 |  | 
13 | C#Cc1c(F)ccc2cc(O)cc(-c3nc4c5c(nc(OCC67CCCN6CC(F)C7)nc5c3F)N(CC(C)N)CCO4)c12 (centres unmarked) [Example 13] | ≤ 100 |  | 
14 | C#Cc1c(F)ccc2cccc(-c3nc4c5c(nc(OC[C@@H]6CCCN6C)nc5c3F)N(C(C)c3cccnc3N)[C@@H](C)CO4)c12 (single isomer, unassigned) [Example 87] |  | < 100 | AUC(0-inf) [3]: 309 ng·h/mL; AUC(0-t) [3]: 266 ng·h/mL; Cmax [3]: 49 ng/mL; Tmax [3]: 0.25 h; half-life [3]: 3.66 h; MRT last [3]: 4.93 h
15 | C#Cc1c(F)ccc2cc(O)cc(-c3nc4c5c(nc(OC[C@@]67CCCN6C[C@H](F)C7)nc5c3F)N(C[C@H](C)N(C)C)CCO4)c12 [Example 25] | ≤ 100 |  | 
16 | C#Cc1c(F)ccc2cc(O)cc(-c3nc4c5c(nc(OC[C@@]67CCCN6C[C@H](F)C7)nc5c3F)N(C3CC(N)C3)CCO4)c12 (some centres unmarked) [Example 17] | ≤ 100 |  | 
17 | Cc1c(F)cc2[nH]ncc2c1-c1nc2c3c(nc(OC[C@@]45CCCN4C[C@H](F)C5)nc3c1F)N(C(C)c1cccnc1N)[C@@H](C)CO2 (single isomer, unassigned) [Example 85] |  | < 100 | AUC(0-inf) [3]: 214 ng·h/mL; AUC(0-t) [3]: 197 ng·h/mL; Cmax [3]: 50.2 ng/mL; Tmax [3]: 0.25 h; half-life [3]: 2.77 h; MRT last [3]: 3.4 h
18 | C#Cc1c(F)ccc2cc(O)cc(-c3nc4c5c(nc(OCC67CCCN6CC(F)C7)nc5c3F)N(C(C)C)CCO4)c12 (centres unmarked) [Example 4] | ≤ 100 | 100 to 500 | IC50 (AsPc-1 cells): 500 to 999 nM
19 | C#Cc1c(F)ccc2cc(O)cc(-c3nc4c5c(nc(OCC67CCCN6CC(F)C7)nc5c3F)N(C)CCO4)c12 (centres unmarked) [Example 9] | ≤ 100 |  | 
20 | C#Cc1c(F)ccc2cc(O)cc(-c3nc4c5c(nc(OCCN(C)C)nc5c3F)N(C(C)c3cccnc3N)[C@@H](C)CO4)c12 (single isomer, unassigned) [Example 95] |  | < 100 | The remaining amount % (T = 60 min) (0.5 mg/mL) Mouse liver microsome [2]: >60%
21 | C#Cc1c(F)ccc2cc(O)cc(-c3nc4c5c(nc(OCCCN(C)C)nc5c3F)N(C(C)c3cccnc3N)[C@@H](C)CO4)c12 (single isomer, unassigned) [Example 79] |  | < 100 | The remaining amount % (T = 60 min) (0.5 mg/mL) Mouse liver microsome [2]: >60%
22 | C#Cc1c(F)ccc2cc(O)cc(-c3nc4c5c(nc(OC[C@@]67CCCN6C[C@H](F)C7)nc5c3F)NCCO4)c12 [Example 1] | ≤ 100 |  | 
23 | C#Cc1c(F)ccc2cc(O)cc(-c3nc4c5c(nc(OCC6(CN(C)C)CC6)nc5c3F)N(C(C)c3cccnc3N)[C@@H](C)CO4)c12 (single isomer, unassigned) [Example 150] |  | < 100 | IC50 (AsPc-1 cells): ≤ 100 nM
24 | C#Cc1c(F)ccc2cc(O)cc(-c3nc4c5c(nc(OC[C@@]67CCCN6C[C@H](F)C7)nc5c3F)N(C(C)(C)C)CCO4)c12 [Example 31] |  | 100 to 500 | IC50 (AsPc-1 cells): 100 to 500 nM
25 | C#Cc1c(F)ccc2cc(O)cc(-c3nc4c5c(nc(OC[C@@H]6CCN(C)C6)nc5c3F)N(C(C)c3cccnc3N)[C@@H](C)CO4)c12 (single isomer, unassigned) [Example 101] |  | < 100 | The remaining amount % (T = 60 min) (0.5 mg/mL) Mouse liver microsome [2]: >60%
26 | C#Cc1c(F)ccc2cc(O)cc(-c3nc4c5c(nc(OC[C@@]67CCCN6C[C@H](F)C7)nc5c3F)N(C[C@@H](C)N(C)C)CCO4)c12 [Example 24] | ≤ 100 |  | 
27 | C#Cc1c(F)ccc2cc(O)cc(-c3nc4c5c(nc(OCC67CCCN6CC(F)C7)nc5c3F)N(C3CCC(N(C)C)C3)CCO4)c12 (centres unmarked) [Example 23] | 100 to 500 |  | 
28 | C#Cc1c(F)ccc2cc(O)cc(-c3nc4c5c(nc(OC[C@@]67CCCN6C[C@H](F)C7)nc5c3F)N(CC)CCO4)c12 [Example 3] |  | 100 to 500 | IC50 (AsPc-1 cells): 100 to 500 nM
29 | CC(c1cccnc1N)N1c2nc(OC[C@@]34CCCN3C[C@H](F)C4)nc3c(F)c(-c4cc(O)cc5ccccc45)nc(c23)OC[C@@H]1C (single isomer, unassigned) [Example 118] |  | < 100 | IC50 (AsPc-1 cells): ≤ 100 nM
30 | C#Cc1c(F)ccc2cc(O)cc(-c3nc4c5c(nc(OC[C@@]67CCCN6C[C@H](F)C7)nc5c3F)N([C@H]3C[C@@H]3N)CCO4)c12 [Example 16] | ≤ 100 |  | 
